For 29 compounds, IC50 results are on record in ChEMBL document CHEMBL3826962, “Synthesis, biological evaluation and molecular docking of 2-phenyl-benzo[d]oxazole-7-carboxamide derivatives as potential Staphylococcus aureus Sortase A inhibitors” (Bioorg Med Chem Lett, 2016).

A short description of this assay: Inhibition of Staphylococcus aureus sortase A using Abz-LPETG-Dap(DNP)-NH2 as substrate preincubated for 1 hr followed by substrate addition by FRET assay.

Take `CC(C)CNC(=O)c1cccc2nc(-c3ccc(COC(=O)/C=C/c4ccc(O)cc4)cc3)oc12`: the midpoint of inhibition, the IC50, lay at 87.4 µM.

For the compound `CC(C)CNC(=O)c1cccc2nc(-c3ccc(COC(=O)c4ccc([N+](=O)[O-])cc4)cc3)oc12`, inhibition was half-maximal at 159 µM (IC50).

As for `CC(C)NC(=O)c1cccc2nc(-c3ccc(COC(=O)c4cccc(O)c4)cc3)oc12`, the midpoint of inhibition, the IC50, lay at 144 µM.

`CC(C)CNC(=O)c1cccc2nc(-c3ccc(COC(=O)c4ccc(O)c(O)c4O)cc3)oc12`: it took 19.8 µM to reach half-maximal inhibition (IC50).

For the compound `CC(C)NC(=O)c1cccc2nc(-c3ccc(COC(=O)c4ccc(O)cc4)cc3)oc12`, the midpoint of inhibition, the IC50, lay at 46.3 µM.

For `CCCCNC(=O)c1cccc2nc(-c3ccc(COC(=O)c4cccc(O)c4)cc3)oc12`, the IC50 (as a rule, the concentration that inhibits the measured activity by half) was found to be 161 µM.

On to `CC(C)CNC(=O)c1cccc2nc(-c3ccc(COC(=O)c4ccc(O)cc4O)cc3)oc12`, for which the IC50 was 22.4 µM.

In turn, `O=C(Cc1cccc(O)c1)OCc1ccc(-c2nc3ccccc3o2)cc1` displayed an IC50 greater than 200 µM.

In the case of `CC(C)NC(=O)c1cccc2nc(-c3ccc(COC(=O)Cc4ccc(O)cc4)cc3)oc12`, the IC50 was determined as 116 µM.

Regarding `CCCCNCc1ccc(-c2nc3cccc(C(=O)NCC(C)C)c3o2)cc1`, the IC50 was 136 µM.

`CC(C)CNC(=O)c1cccc2nc(-c3ccc(CNCc4ccccc4)cc3)oc12` displayed an IC50 of 128 µM.

For the compound `CC(C)NC(=O)c1cccc2nc(-c3ccc(COC(=O)Cc4ccc(O)c(O)c4)cc3)oc12`, the IC50 is 74.8 µM.

Take `CCCCNC(=O)c1cccc2nc(-c3ccc(COC(=O)Cc4cccc(O)c4)cc3)oc12`: the IC50 is 177 µM.

For `CC(C)CNC(=O)c1cccc2nc(-c3ccc(COC(=O)Cc4ccc(O)c(O)c4)cc3)oc12`, 64.4 µM corresponded to half-maximal inhibition (IC50).

Regarding `O=C(OCc1ccc(-c2nc3ccccc3o2)cc1)c1ccc(O)cc1`, the IC50 was greater than 200 µM.

With `CCCCNC(=O)c1cccc2nc(-c3ccc(COC(=O)Cc4ccc(O)cc4)cc3)oc12`, half-maximal inhibition (IC50) required 181 µM.

Compound `CC(C)CNC(=O)c1cccc2nc(-c3ccc(COC(=O)c4cccc(O)c4)cc3)oc12` had an IC50 of 26.1 µM.

`CCCCNC(=O)c1cccc2nc(-c3ccc(COC(=O)c4ccc(O)cc4)cc3)oc12` had an IC50 of 155 µM.

With `CC(C)CNC(=O)c1cccc2nc(-c3ccc(COC(=O)c4ccccc4[N+](=O)[O-])cc3)oc12`, the IC50 was 155 µM.

Turning to `COc1cc(OC)cc(C(=O)OCc2ccc(-c3nc4cccc(C(=O)NCC(C)C)c4o3)cc2)c1`, inhibition was half-maximal at 24.8 µM (IC50).

For `CC(C)CNC(=O)c1cccc2nc(-c3ccc(COC(=O)Cc4cccc(O)c4)cc3)oc12`, the IC50 turned out to be 81.4 µM.

With `CC(C)CNC(=O)c1cccc2nc(-c3ccc(COC(=O)c4ccccc4)cc3)oc12`, the IC50 worked out at 161 µM.

The compound `CC(C)CNC(=O)c1cccc2nc(-c3ccc(COC(=O)Cc4ccc(O)cc4)cc3)oc12` displayed an IC50 of 73.2 µM.

As for `CC(C)CNC(=O)c1cccc2nc(-c3ccc(COC(=O)Cc4ccc([N+](=O)[O-])c(O)c4)cc3)oc12`, the IC50 is 87.4 µM.

Regarding `CC(C)CNC(=O)c1cccc2nc(-c3ccc(COC(=O)c4ccc(O)c(O)c4)cc3)oc12`, the IC50 came out at 20.6 µM.

Compound `COc1ccc(NCc2ccc(-c3nc4cccc(C(=O)NCC(C)C)c4o3)cc2)cc1` yielded an IC50 of 65.5 µM.

Compound `O=C(Cc1ccc(O)c(O)c1)OCc1ccc(-c2nc3ccccc3o2)cc1` came in with an IC50 greater than 200 µM.

Compound `CCCCNC(=O)c1cccc2nc(-c3ccc(COC(=O)/C=C/c4ccc(O)cc4)cc3)oc12` displayed an IC50 of 184 µM.

Compound `O=C(OCc1ccc(-c2nc3ccccc3o2)cc1)c1cccc(O)c1` displayed an IC50 greater than 200 µM.
